{"source": "patent US10457662B2", "about": "“Substituted amides for treating and preventing cancer” (The Regents of the University of Michigan, priority 2015, dated 2019)", "key": {"[1]": {"test_system": "MiaPaCa-2 cells", "experiment": "Ingenuity Pathway Analysis (IPA) of Bru-seq gene lists", "details": "1 μM, 24 h", "excerpt": "Top 20 canonical pathways regulated by QN523. Histogram represents percentage of genes regulated in the pathway; numbers on the histogram are total numbers of genes in the specific pathway. […] Orange line represents statistical significance in regulation of the indicated pathway."}, "[2]": {"test_system": "MiaPaCa-2", "experiment": "Colony formation assay, MiaPaCa-2", "assay_type": "cell-based", "details": "0.1 μM; 24 h treatment", "excerpt": "(§1) A) QN523 inhibits colony formation in PDAC cell lines. […] Data points represent Mean±SD from three independent experiments.\n(§2) The cytotoxicity of QN523 was further evaluated in three pancreatic cancer cell lines using colony formation assay. Using numbers and sizes of colonies as the experimental readout, this long-term assay estimates both anti-proliferative and cytotoxic effect."}, "[3]": {"test_system": "PDAC cell lines", "experiment": "Colony formation assay, three pancreatic cancer cell lines", "assay_type": "cell-based", "details": "1 μM; all three cell lines; 24 h treatment", "excerpt": "as §1, §2"}, "[4]": {"test_system": "three pancreatic cancer cell lines", "experiment": "MTT assay, three pancreatic cancer cell lines", "assay_type": "cell-based", "details": "read-out: Mark: IC50 lower than 1 μM in at least one cell line, Table 1"}, "[5]": {"test_system": "BxPC-3", "experiment": "MTT assay, BxPC-3", "assay_type": "cell-based", "details": "Homo sapiens", "description": "(§3) Experiments conducted during the course of developing embodiments for the present invention involved performance of a phenotypic screen of a library of 20,000 small-molecules representing five million compounds. […] Subsequently, a lead optimization campaign was performed to synthesize a series of close analogs. Initially, the 50 analogs were tested in three pancreatic cancer cell lines using MTT assay (Table 1).\n(§4) For in vitro studies, compounds were dissolved in DMSO at 10 mM as stock solutions and stored at −20° C. For in vivo studies, QN523 was dissolved in a vehicle containing 5% DMSO, 35% propylene glycol and 60% saline, and administered at 100 uL through intraperitoneal injections."}, "[6]": {"test_system": "GRP78, CHOP, ATF3, GDF15", "experiment": "Western blotting of stress responsive proteins in MiaPaCa-2", "assay_type": "cell-based", "details": "72 h, western blotting", "description": "FIG. 11: QN523 induces protein expression of stress markers dose-dependently.\nThis example describes the validation of biomarkers GDF15, ATF3, DDIT3, HSPA5, WIPI1, GABARAPL1 and MAP1LC3B in pancreatic cancer cell lines. To validate the findings from bioinformatics analysis basing on Bru-seq experiments, the proposed biomarkers were further tested in pancreatic cancer cell lines. […] However, the potency of Sulindac is much lower than that of QN523, with IC50 of 300 μM in MiaPaCa-2.\nIn addition, primary antibodies for LC3B, survivin, cyclin D1, Stat3 and phosphorylated Stat3 (Y705) are from Cell Signaling Technology."}, "[7]": {"test_system": "MiaPaCa-2", "experiment": "MTT assay, MiaPaCa-2", "description": "Cells were treated with QN523 for 1, 4, 8, 24, 48, 72 h and left in culture in fresh media. MTT assay was performed 72 h after initiation of treatment. Data points represent Mean±SD from three independent experiments.\nas §3, §4"}, "[8]": {"test_system": "SNU398", "experiment": "MTT assay, SNU398", "assay_type": "cell-based", "details": "Homo sapiens, SNU-398, HCC cell line", "description": "(§5) In order to understand its potential selectivity for different types of cancer and choose the best model for further characterization, QN523 was tested in a panel of 12 cancer cell lines with various genetic and pathological backgrounds (Table 2). […] Because of remarkable potency of QN-523 in pancreatic cancer in-depth preclinical studies in this disease model were performed."}, "[9]": {"test_system": "MiaPaCa-2 xenograft", "experiment": "MiaPaCa-2 xenograft in NOD/SCID mice", "assay_type": "in vivo", "description": "FIG. 2A-E: QN523 inhibits tumor growth of MiaPaCa-2 xenograft without systemic cytotoxicity. A) Tumor volume of MiaPaCa-2 xenograft of vehicle or QN523 treated mice. MiaPaCa-2 xenograft was established in NOD/SCID mice. When tumor size reached 100 mm^3, mice were randomized into vehicle control group (n=5) or treatment group (n=5). QN523 was given by i.p. injection five times a week at 10 mg/kg from day 1 to day 9, then at 20 mg/kg from day 10 to day 44. B) Body weight of vehicle of QN523 treated mice. Representative micrographs of hematoxylin and eosin (H&E)-stained organ sections. Images were taken with Olympus IX83 inverted microscope at 20× magnification. […] D) Tumor volumes of study continued after data shown in panel A. QN523 was given at 20 mg/kg five times a week until day 44. Three mice from each group were euthanized for tissue analysis. Two mice remained in each group after day 44 and QN523 dose was increased to 30 mg/kg from day 45, then to 40 mg/kg from day 51 to day 60. E) Body weight of engrafted mice was not affected by QN523 treatment at 10-40 mg/kg. Error bars indicate Mean±SEM.\nTo further evaluate the therapeutic potentials of QN523 in pancreatic cancer, MiaPaCa-2 xenograft were implanted in NOD/SCID mice. When tumor size reached 100 mm^3, mice were randomized to either vehicle control (n=5) or QN523 treatment (n=5) group. QN523 was initially given at 10 mg/kg with intraperitoneal administration."}, "[10]": {"test_system": "MiaPaCa-2 cells", "experiment": "DAVID analysis of Bru-seq gene lists", "details": "genes changed at least 2 fold", "description": "Histogram represents statistical significance in regulation of the indicated theme.\nThe lists were also analyzed by Database for Annotation, Visualization and Integrated Discovery (DAVID), which identify enriched biological themes with particular focus on gene ontology terms, as well as functional-related gene groups (see, e.g., Huang da W, Sherman B T, Lempicki R A (2009) Nature protocols 4(1): 44-57; Huang da W, Sherman B T, Lempicki R A (2009) Nucleic acids research 37(1): 1-13). […] In addition, induction of apoptosis and disruption of cell cycle might be important cellular events contributing to cytotoxicity of QN523.\nTop functional terms identified by DAVID are reported."}, "[11]": {"test_system": "SNU387", "experiment": "MTT assay, SNU387", "assay_type": "cell-based", "details": "Homo sapiens, SNU-387, HCC cell line", "description": "as §5"}, "[12]": {"test_system": "SNU475", "experiment": "MTT assay, SNU475", "assay_type": "cell-based", "details": "Homo sapiens, SNU-475, HCC cell line", "description": "as §5"}}, "note": "Entries after “also recorded” stand apart in the source; their conditions may differ. Read-outs that look alike come from different tables or passages of the source."}
{"smiles": "O=C(Nc1cccc2cccnc12)c1cnccn1", "note": "[QN523, Pyrazine-2-carboxylic acid quinolin-8-ylamide]", "values": [{"measurement": "genes up-regulated in unfolded protein response, ER stress pathway and circadian rhythm signaling", "setting": "[1]", "result": "about 25%"}, {"measurement": "suppression of MiaPaCa-2 colonies", "setting": "[2]", "result": "complete suppression of MiaPaCa-2 colonies"}, {"measurement": "inhibition of colony formation", "setting": "[3]", "result": "Complete inhibition of colony formation"}, {"measurement": "IC50", "setting": "[4]", "result": "< 1", "unit": "µM"}, {"measurement": "IC50", "setting": "[5]; BXPC-3, read-out: IC50 BxPC-3", "result": 3.3, "unit": "µM"}, {"measurement": "IC50", "setting": "[5]; BXPC-3, read-out: IC50 Values BxPC-3", "result": "3.3 ± 0.26", "unit": "µM"}, {"measurement": "protein levels of stress responsive markers HSPA5, DDIT3, ATF3 and GDF15", "setting": "[6]", "result": "dose dependent upregulation"}, {"measurement": "IC50", "setting": "[7]; Homo sapiens, MIA PaCa-2, read-out: IC50 Mia PaCa-2, MTT assay, PDAC cell line", "result": 0.11, "unit": "µM"}, {"measurement": "IC50", "setting": "[7]; Homo sapiens, MIA PaCa-2, read-out: IC50 Values MiaPaCa-2, MTT assay, Mean ± SD, three independent experiments", "result": "0.11 ± 0.03", "unit": "µM"}, {"measurement": "IC50", "setting": "[7]; read-out: IC50 Mia PaCa-2, MTT assay, PDAC cell line", "result": "~0.1", "unit": "µM"}, {"measurement": "cytotoxicity versus treatment time", "setting": "[7]; treated 1, 4, 8, 24, 48, 72 h, washed, MTT at 72 h", "result": "time dependent cytotoxicity effect"}, {"measurement": "IC50", "setting": "[8]", "result": 1.9, "unit": "µM"}, {"measurement": "delay in tumor growth", "setting": "[9]; 10 mg/kg i.p., day 1 to day 9", "result": "no significant delay in tumor growth"}, {"measurement": "day from which xenograft growth was delayed", "setting": "[9]; 20 mg/kg i.p. from day 10, p<0.01", "result": "≥ 17", "unit": "days"}, {"measurement": "tumor growth at higher doses", "setting": "[9]; 30 mg/kg from day 45, 40 mg/kg day 51 to 60, two mice", "result": "able to delay growth of the tumors"}, {"measurement": "symptoms of gross toxicity (weakness, weight loss, lethargy)", "setting": "[9]; 10-20 mg/kg i.p., 44 days", "result": "No symptoms of gross toxicity"}, {"measurement": "body weight of engrafted mice", "setting": "[9]; 10-40 mg/kg", "result": "not affected"}, {"measurement": "H&E stained organ sections (liver, kidney, heart, lung, spleen, pancreas)", "setting": "[9]; after 44-day treatment", "result": "did not reveal major histopathological changes"}, {"measurement": "mean tumor volume", "setting": "[9]; day 44, 10 then 20 mg/kg i.p. five times a week", "result": "259±38", "unit": "mm^3"}, {"measurement": "inhibition of tumor growth", "setting": "[9]; day 44 versus vehicle control", "result": 80, "unit": "%"}, {"measurement": "systemic toxicity", "setting": "[9]; doses as high as 40 mg/kg", "result": "no systemic toxicity"}, {"measurement": "Ki67 in tumor tissues", "setting": "[9]; immunohistochemistry of xenograft sections", "result": "decreased Ki67 levels; also recorded: decreased Ki67 index"}, {"measurement": "biological themes downregulated", "setting": "[10]", "result": "chromosomal proteins and cell cycle genes"}, {"measurement": "biological themes upregulated", "setting": "[10]", "result": "Apoptosis, (bZIP) transcription factors, ER related genes and stress responses"}, {"measurement": "IC50", "setting": "[11]", "result": 5.73, "unit": "µM"}, {"measurement": "IC50", "setting": "[12]", "result": 2.67, "unit": "µM"}]}
